Laboratory results from patent US20230073777A1, “CYCLIC-AMP RESPONSE ELEMENT BINDING PROTEIN (CBP) AND/OR ADENOVIRAL E1A BINDING PROTEIN OF 300 KDA (P300) DEGRADATION COMPOUNDS AND METHODS OF USE” (CULLGEN (SHANGHAI), INC., priority 2019, published 2023).

Columns and labels:
LNCaP cells = assay: LNCaP cell viability assay (CellTiter-Glo); assay type: cell-based; conditions: Homo sapiens, 72 h; LNCaP prostate cancer cell viability inhibition, 3 days, CellTiter-Glo (Table 3)
Summary of the method: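 LNCaP cells, 5000/well, exposed to compounds in 12-point 3-fold serial dilution (top 10 μM) for 3 days. Viability by CellTiter-Glo luminescence, normalized to untreated cells; IC50 by least-squares nonlinear regression.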

P300 = P300 (Homo sapiens, UniProt Q09472); assay: Immunoblotting of P300 protein levels in LNCaP or 22RV1 cells; assay type: cell-based; parameters: LNCaP or 22RV1 cells that express CBP/P300 proteins were treated with GNE-781 or the bivalent compounds; endogenous in cells; host or cells: LNCaP (clone FGC) or 22RV1 cells; conditions: percentage of inhibition of p300 at 10 nM (Table 3); read-out: Degradation (10 nM)
Summary of the method: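 LNCaP or 22RV1 cells treated with compounds for indicated hours, DMSO as negative control. RIPA lysates resolved by SDS-PAGE and immunoblotted for P300 or CBP, tubulin or vinculin as loading control; chemiluminescent bands quantitated.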

Chain of P300 (Q09472 whole entry): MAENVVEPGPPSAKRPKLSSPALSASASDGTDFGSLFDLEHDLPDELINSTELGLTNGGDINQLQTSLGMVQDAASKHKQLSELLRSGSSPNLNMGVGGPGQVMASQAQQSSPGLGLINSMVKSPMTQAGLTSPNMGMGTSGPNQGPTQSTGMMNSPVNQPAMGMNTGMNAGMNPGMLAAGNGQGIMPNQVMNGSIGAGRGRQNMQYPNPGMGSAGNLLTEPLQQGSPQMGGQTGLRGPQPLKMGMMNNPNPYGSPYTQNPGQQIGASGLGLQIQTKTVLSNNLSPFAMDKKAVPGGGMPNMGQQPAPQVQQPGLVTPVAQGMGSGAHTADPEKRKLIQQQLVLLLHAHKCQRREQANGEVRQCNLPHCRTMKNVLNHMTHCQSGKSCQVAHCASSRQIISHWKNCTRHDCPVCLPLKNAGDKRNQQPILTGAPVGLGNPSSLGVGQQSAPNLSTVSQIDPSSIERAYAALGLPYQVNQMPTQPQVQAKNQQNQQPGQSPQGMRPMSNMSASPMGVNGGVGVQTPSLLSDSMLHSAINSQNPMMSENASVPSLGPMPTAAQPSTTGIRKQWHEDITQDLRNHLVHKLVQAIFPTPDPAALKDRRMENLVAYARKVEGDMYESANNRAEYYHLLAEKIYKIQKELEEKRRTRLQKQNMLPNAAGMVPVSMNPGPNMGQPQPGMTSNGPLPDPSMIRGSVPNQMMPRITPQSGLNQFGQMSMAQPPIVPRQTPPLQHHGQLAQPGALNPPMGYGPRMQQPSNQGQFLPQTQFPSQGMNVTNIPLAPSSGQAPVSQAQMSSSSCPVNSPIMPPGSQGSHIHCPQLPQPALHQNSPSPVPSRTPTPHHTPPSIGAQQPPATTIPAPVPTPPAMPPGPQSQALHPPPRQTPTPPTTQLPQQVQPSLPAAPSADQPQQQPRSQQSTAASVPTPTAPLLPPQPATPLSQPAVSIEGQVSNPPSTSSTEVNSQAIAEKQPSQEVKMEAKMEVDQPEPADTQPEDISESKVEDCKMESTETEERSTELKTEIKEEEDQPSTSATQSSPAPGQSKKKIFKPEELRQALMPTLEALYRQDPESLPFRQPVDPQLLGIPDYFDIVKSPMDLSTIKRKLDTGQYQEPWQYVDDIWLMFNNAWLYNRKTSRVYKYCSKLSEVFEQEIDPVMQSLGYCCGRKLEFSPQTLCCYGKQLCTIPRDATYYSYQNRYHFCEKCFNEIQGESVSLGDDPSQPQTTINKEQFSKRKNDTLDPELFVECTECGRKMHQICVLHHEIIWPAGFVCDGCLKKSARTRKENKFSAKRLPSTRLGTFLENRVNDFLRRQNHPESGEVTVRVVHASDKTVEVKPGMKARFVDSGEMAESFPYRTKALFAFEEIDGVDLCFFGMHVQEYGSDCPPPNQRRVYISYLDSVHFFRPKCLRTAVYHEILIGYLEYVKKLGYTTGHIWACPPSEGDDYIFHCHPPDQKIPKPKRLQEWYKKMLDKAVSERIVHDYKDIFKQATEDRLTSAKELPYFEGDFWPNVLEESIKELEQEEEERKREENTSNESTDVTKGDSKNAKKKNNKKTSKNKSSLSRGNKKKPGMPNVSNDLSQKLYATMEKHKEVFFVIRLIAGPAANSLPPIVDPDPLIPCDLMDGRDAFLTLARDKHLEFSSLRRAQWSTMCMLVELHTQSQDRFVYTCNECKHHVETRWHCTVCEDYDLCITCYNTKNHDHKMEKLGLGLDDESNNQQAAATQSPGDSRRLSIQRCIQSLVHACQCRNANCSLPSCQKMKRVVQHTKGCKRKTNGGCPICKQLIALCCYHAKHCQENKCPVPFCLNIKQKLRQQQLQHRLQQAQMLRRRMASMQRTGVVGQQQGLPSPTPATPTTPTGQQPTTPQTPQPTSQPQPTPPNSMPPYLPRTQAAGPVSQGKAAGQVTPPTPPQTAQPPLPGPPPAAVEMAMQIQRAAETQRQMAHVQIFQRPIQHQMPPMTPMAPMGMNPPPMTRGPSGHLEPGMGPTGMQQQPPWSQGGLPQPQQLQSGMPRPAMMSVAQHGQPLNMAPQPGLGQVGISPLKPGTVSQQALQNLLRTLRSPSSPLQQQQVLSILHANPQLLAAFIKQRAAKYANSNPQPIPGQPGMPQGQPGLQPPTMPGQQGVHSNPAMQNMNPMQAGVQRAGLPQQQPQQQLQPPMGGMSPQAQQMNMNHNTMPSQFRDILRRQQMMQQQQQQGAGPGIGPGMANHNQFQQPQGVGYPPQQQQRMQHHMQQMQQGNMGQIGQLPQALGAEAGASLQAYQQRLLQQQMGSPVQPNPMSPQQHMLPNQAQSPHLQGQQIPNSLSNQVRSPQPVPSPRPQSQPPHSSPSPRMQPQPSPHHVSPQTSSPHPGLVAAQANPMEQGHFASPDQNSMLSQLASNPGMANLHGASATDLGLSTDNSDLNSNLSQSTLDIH

Compound	IC50 (LNCaP cells) [nM]	inhibition at 0.01 µM (P300) [%]
CNC(=O)N1CCc2c(c(N3CCCc4cc(-c5cnn(C)c5)c(C(F)F)cc43)nn2C2CCN(C(=O)CCC(=O)N[C@H](C(=O)N3C[C@H](O)C[C@H]3C(=O)NCc3ccc(-c4scnc4C)cc3)C(C)(C)C)CC2)C1 [P-056, 3-(7-(Difluoromethyl)-6-(1-methyl-1H-pyrazol-4-yl)-3,4-dihydroquinolin-1(2H)-yl)-1-(1-(4-(((S)-1-((2S,4R)-4-hydroxy-2-((4-(4-methylthiazol-5-yl)benzyl)carbamoyl)pyrrolidin-1-yl)-3,3-dimethyl-1-oxobutan-2-yl)amino)-4-oxobutanoyl)piperidin-4-yl)-N-methyl-1,4,6,7-tetrahydro-5H-pyrazolo[4,3-c]pyridine-5-carboxamide]	75.6	< 20
CNC(=O)N1CCc2c(c(N3CCCc4cc(-c5cnn(C)c5)c(C(F)F)cc43)nn2C2CCN(C(=O)CCCC(=O)N[C@H](C(=O)N3C[C@H](O)C[C@H]3C(=O)NCc3ccc(-c4scnc4C)cc3)C(C)(C)C)CC2)C1 [P-057, 3-(7-(Difluoromethyl)-6-(1-methyl-1H-pyrazol-4-yl)-3,4-dihydroquinolin-1(2H)-yl)-1-(1-(5-(((S)-1-((2S,4R)-4-hydroxy-2-((4-(4-methylthiazol-5-yl)benzyl)carbamoyl)pyrrolidin-1-yl)-3,3-dimethyl-1-oxobutan-2-yl)amino)-5-oxopentanoyl)piperidin-4-yl)-N-methyl-1,4,6,7-tetrahydro-5H-pyrazolo[4,3-c]pyridine-5-carboxamide]	76.6	< 20
CNC(=O)N1CCc2c(c(N3CCCc4cc(-c5cnn(C)c5)c(C(F)F)cc43)nn2C2CCN(C(=O)CCCCC(=O)N[C@H](C(=O)N3C[C@H](O)C[C@H]3C(=O)NCc3ccc(-c4scnc4C)cc3)C(C)(C)C)CC2)C1 [P-058, 3-(7-(Difluoromethyl)-6-(1-methyl-1H-pyrazol-4-yl)-3,4-dihydroquinolin-1(2H)-yl)-1-(1-(6-(((S)-1-((2S,4R)-4-hydroxy-2-((4-(4-methylthiazol-5-yl)benzyl)carbamoyl)pyrrolidin-1-yl)-3,3-dimethyl-1-oxobutan-2-yl)amino)-6-oxohexanoyl)piperidin-4-yl)-N-methyl-1,4,6,7-tetrahydro-5H-pyrazolo[4,3-c]pyridine-5-carboxamide]	67.8	< 20
CNC(=O)N1CCc2c(c(N3CCCc4cc(-c5cnn(C)c5)c(C(F)F)cc43)nn2C2CCN(C(=O)CCCCCC(=O)N[C@H](C(=O)N3C[C@H](O)C[C@H]3C(=O)NCc3ccc(-c4scnc4C)cc3)C(C)(C)C)CC2)C1 [P-059, 3-(7-(Difluoromethyl)-6-(1-methyl-1H-pyrazol-4-yl)-3,4-dihydroquinolin-1(2H)-yl)-1-(1-(7-(((S)-1-((2S,4R)-4-hydroxy-2-((4-(4-methylthiazol-5-yl)benzyl)carbamoyl)pyrrolidin-1-yl)-3,3-dimethyl-1-oxobutan-2-yl)amino)-7-oxoheptanoyl)piperidin-4-yl)-N-methyl-1,4,6,7-tetrahydro-5H-pyrazolo[4,3-c]pyridine-5-carboxamide]	60.6	< 20
CNC(=O)N1CCc2c(c(N3CCCc4cc(-c5cnn(C)c5)c(C(F)F)cc43)nn2C2CCN(C(=O)CCCCCCCC(=O)N[C@H](C(=O)N3C[C@H](O)C[C@H]3C(=O)NCc3ccc(-c4scnc4C)cc3)C(C)(C)C)CC2)C1 [P-061, 3-(7-(Difluoromethyl)-6-(1-methyl-1H-pyrazol-4-yl)-3,4-dihydroquinolin-1(2H)-yl)-1-(1-(9-(((S)-1-((2S,4R)-4-hydroxy-2-((4-(4-methylthiazol-5-yl)benzyl)carbamoyl)pyrrolidin-1-yl)-3,3-dimethyl-1-oxobutan-2-yl)amino)-9-oxononanoyl)piperidin-4-yl)-N-methyl-1,4,6,7-tetrahydro-5H-pyrazolo[4,3-c]pyridine-5-carboxamide]	81.3	< 20

Continued, values first:

IC50 (LNCaP cells) [nM]	inhibition at 0.01 µM (P300) [%]	Compound
59.1	< 20	CNC(=O)N1CCc2c(c(N3CCCc4cc(-c5cnn(C)c5)c(C(F)F)cc43)nn2C2CCN(C(=O)CCCCCCC(=O)N[C@H](C(=O)N3C[C@H](O)C[C@H]3C(=O)NCc3ccc(-c4scnc4C)cc3)C(C)(C)C)CC2)C1 [P-060, 3-(7-(Difluoromethyl)-6-(1-methyl-1H-pyrazol-4-yl)-3,4-dihydroquinolin-1(2H)-yl)-1-(1-(8-(((S)-1-((2S,4R)-4-hydroxy-2-((4-(4-methylthiazol-5-yl)benzyl)carbamoyl)pyrrolidin-1-yl)-3,3-dimethyl-1-oxobutan-2-yl)amino)-8-oxooctanoyl)piperidin-4-yl)-N-methyl-1,4,6,7-tetrahydro-5H-pyrazolo[4,3-c]pyridine-5-carboxamide]
35	20 to 50	CNC(=O)N1CCc2c(c(N3CCCc4cc(-c5cnn(C)c5)c(C(F)F)cc43)nn2C2CCN(C(=O)CCCCCCCCC(=O)N[C@H](C(=O)N3C[C@H](O)C[C@H]3C(=O)NCc3ccc(-c4scnc4C)cc3)C(C)(C)C)CC2)C1 [P-062, 3-(7-(Difluoromethyl)-6-(1-methyl-1H-pyrazol-4-yl)-3,4-dihydroquinolin-1(2H)-yl)-1-(1-(10-(((S)-1-((2S,4R)-4-hydroxy-2-((4-(4-methylthiazol-5-yl)benzyl)carbamoyl)pyrrolidin-1-yl)-3,3-dimethyl-1-oxobutan-2-yl)amino)-10-oxodecanoyl)piperidin-4-yl)-N-methyl-1,4,6,7-tetrahydro-5H-pyrazolo[4,3-c]pyridine-5-carboxamide]
28.9	20 to 50	CNC(=O)N1CCc2c(c(N3CCCc4cc(-c5cnn(C)c5)c(C(F)F)cc43)nn2C2CCN(C(=O)CCCCCCCCCC(=O)N[C@H](C(=O)N3C[C@H](O)C[C@H]3C(=O)NCc3ccc(-c4scnc4C)cc3)C(C)(C)C)CC2)C1 [P-063, 3-(7-(Difluoromethyl)-6-(1-methyl-1H-pyrazol-4-yl)-3,4-dihydroquinolin-1(2H)-yl)-1-(1-(11-(((S)-1-((2S,4R)-4-hydroxy-2-((4-(4-methylthiazol-5-yl)benzyl)carbamoyl)pyrrolidin-1-yl)-3,3-dimethyl-1-oxobutan-2-yl)amino)-11-oxoundecanoyl)piperidin-4-yl)-N-methyl-1,4,6,7-tetrahydro-5H-pyrazolo[4,3-c]pyridine-5-carboxamide]
57.5	< 20	CNC(=O)N1CCc2c(c(N3CCCc4cc(-c5cnn(C)c5)c(C(F)F)cc43)nn2C2CCN(C(=O)COCC(=O)N[C@H](C(=O)N3C[C@H](O)C[C@H]3C(=O)NCc3ccc(-c4scnc4C)cc3)C(C)(C)C)CC2)C1 [P-064, 3-(7-(Difluoromethyl)-6-(1-methyl-1H-pyrazol-4-yl)-3,4-dihydroquinolin-1(2H)-yl)-1-(1-(2-(2-(((S)-1-((2S,4R)-4-hydroxy-2-((4-(4-methylthiazol-5-yl)benzyl)carbamoyl)pyrrolidin-1-yl)-3,3-dimethyl-1-oxobutan-2-yl)amino)-2-oxoethoxy)acetyl)piperidin-4-yl)-N-methyl-1,4,6,7-tetrahydro-5H-pyrazolo[4,3-c]pyridine-5-carboxamide]
